Experimental data published in patent publication US20120165409A1, “WRINKLE-IMPROVING AGENT” (SHISEIDO COMPANY, LTD., priority 2005, published 2012).

Columns and labels:
[1] = system: healthy male panelists having a large number of wrinkles; experiment: Tests of improvement in wrinkles that form in the corners of the eyes (half-face blind test, replica analysis and survey); format: in vivo; conditions: 2.5 mass % in face lotion, human eye corners
Procedure: Face lotions (an example and a comparative example) having the compositions given below were applied three times a day using the half-face method (blind tests) to the faces of healthy male panelists having a large number of wrinkles.
Replicas of the eye corner portions to which lotion was applied were acquired using a SILFLO [apparatus] (Flexico Development Ltd.). The proportion of wrinkle area and the proportion of wrinkle volume were determined for before the application of the face lotion (0 M), after one month of application (1 M), and after two months of application (2 M). […] Both the wrinkle area proportion and the wrinkle volume proportion were determined by analyzing the replicas using a wrinkle-measuring apparatus employing a laser-cutting method (see Japanese Laid-Open Patent Application No. 7-113623).
The results of a survey concerning “Impressions of the Effectiveness of Wrinkle Improvement” sent to 23 test subjects are shown in Table 1.

[2] = system: Hr-1 (Skh-1) hairless mice; experiment: Tests of wrinkle improvement on hairless mice (UVB-induced wrinkles); format: in vivo; conditions: 3% sample solution in 50% ethanol, 100 μL on back skin once a day, five times a week, versus solvent (50% ethanol), FIG. 1, statistically significant
Source text: Wrinkles were formed on Hr-1 (Skh-1) hairless mice (age 6 to 10 weeks) according to a partly modified version of the method of Schwartz et al. (see Haratake A. et al. J. Invest. Dermatol., 108, 769-775, 1997), in which the mice were repeatedly irradiated with UVB (see Naganuma M. et al. J. Dermatol. Sci., 25, 29-35, 2001; Schwartz E. J. Invest. Dermatol. 91, 158-161, 1988). Specifically, the backs [of the mice] were irradiated with UVB (light source: Toshiba FL-20 SE fluorescent lamp, made by Toshiba Electric) three times a week for ten weeks. The amount of irradiation after the treatment commenced was 36 mJ/cm^2/irradiation. […] The total irradiation amount was 4.6 J/cm^2. Values for the amount of ultraviolet light were measured used a UV radiometer (UVR-305/365D(II), [made by] Topcon). [After] irradiation with ultraviolet light was completed, photographs were taken of the backs of the mice, and the degree of wrinkle generation was scored according to the wrinkle evaluation standards given below using a partially modified version of the method of Bissett et al. (see Bissett, D. L., et al. Photochemistry and Photobiology, 46, 367-378, 1987). Scores of 0, 2, 4, 6, and 8 were used as standard values, and 1, 3, 5, and 7 were used as intermediate scores. […]
The degree of wrinkle improvement of the mice was determined in the following manner. […]

SMILES: O=C(O)CCNC(=O)c1ccccc1 [N-benzoyl-β-alanine]
- wrinkle-improving effect (overall conclusion of Example 2) [1]: had a wrinkle-improving effect
- degree of wrinkle improvement (score before sample application − score after five weeks of sample application) [2]: reduction in wrinkles dramatically accelerated
